In patent US20180305345A1 (priority 2015, published 2018):

Legend:
[1] = system: VSVΔ51 in 786-0 cells; type: cell-based, human
[2] = system: VSVΔ51-resistant HT29 cells (human colon carcinoma); design: species or system Balb/c mice; conditions: in vivo

With `O=C1OC(c2ccccc2)C(Cl)=C1Cl` (stereo not shown) [Compound 1, 3,4-dichloro-5-phenyl-2,5-dihydrofuran-2-one, reference compound] the “effect on viral growth after removal of compound at various times” value [1] was “rapid and sustained”.
For `O=C1C(Cl)=C(Cl)C(O)N1Cc1ccccc1` (stereo not drawn) [Compound 10, α,β-dichloro-γ-hydroxy-N-benzyl-crotonic lactam], the “effect on viral growth after removal of compound at various times” value [1] was “rapid and sustained”.
In the case of `O=C1C(Cl)=C(Cl)C(O)N1CCN1CCOCC1` (stereo not shown) [Compound 28, 3,4-dichloro-5-hydroxy-1-(2-morpholinoethyl)-1H-pyrrol-2(5H)-one], the mouse survival [2] is reported as “increased mouse survival rates” and the tumor growth ([2]; mouse) is reported as “reduced tumor growth”.
